{"source": "patent US8614250B2", "about": "(Industry-Academic Cooperation Foundation, Yonsei University, priority 2011, dated 2013)", "key": {"[1]": {"conditions": "rat; ketosis caused by long-chain and short-chain monocarboxylic acids; cited from earlier work"}, "[2]": {"test": "Body weight gain, food intake and visceral fat-pad weights in mice fed high-fat diet supplemented with adipic acid", "assay_type": "in vivo, C57BL/6J mice", "conditions": "0.2% adipic acid in high-fat diet, 10 weeks", "from_the_text": "(§1) The obesity-inducing control diet used in the test was high-fat diet (HFD: 40% fat calorie, 17 g lard+3% corn oil/100 g diet). […] The normal diet group (Chow) was fed with commercially available rodent chow.\n(§2) 5-week-old male C57BL/6J mice (Orient, Korea) were accustomed to the laboratory environment for 1 week while feeding solid feed. Then, they were randomly divided into normal diet, high-fat diet and test groups and bred for a total of 10 weeks. The diet was given between 10 and 11 a.m. every day together with water. Food intake was measured every day and body weight was measured once a week. In order to avoid transient body weight increase after feed intake, body weight was measured 2 hours after removing the feed. After fasting the test animal for at least 12 hours and anesthetizing with diethyl ether, blood, liver and visceral fat (epididymal fat, perirenal fat, mesenteric fat and retroperitoneal fat) were taken and weighed after washing with 0.1 M PBS (pH 7.4). Blood taken from the abdominal aorta was centrifuged at 1000×g for 15 minutes for the separation of plasma."}, "[3]": {"test": "Biochemical analysis of blood (plasma lipids, glucose, ALT, AST) in mice fed test diets", "assay_type": "in vivo, C57BL/6J mice", "conditions": "10 weeks", "from_the_text": "as §1, §2\nAfter 10 weeks of breeding, total cholesterol, triglyceride and glucose levels in the plasma and lipid levels in the liver tissue were measured as follows. Total cholesterol, triglyceride, free fatty acid and glucose levels in the plasma were measured twice for each using a commercially available kit (Bio Clinical System). The activity of ALT (alanine aminotransferase) and AST (aspartate aminotransferase) used as liver function indicator were measured twice for each using a commercially available kit (Bio Clinical System, Korea)."}, "[4]": {"test": "Liver weight and lipid level in liver tissues of mice fed test diets", "assay_type": "in vivo, C57BL/6J mice", "conditions": "10 weeks", "from_the_text": "as §1, §2\nLipids were extracted from the liver tissue according to Folch et al.'s method Folch J et al., J Biol Chem. 226: 497-509 (1957)). After adding 1 mL of distilled water to 0.25 g of liver tissue, the liver tissue was homogenized using a Polytron homogenizer (IKA-Werke GmbH & Co., Ultra-Turrax, Staufen, Germany). After adding 5 mL of chloroform:methanol solution (2:1, v/v) to the homogenate and mixing well, the mixture was centrifuged at 1000×g for 10 minutes. After adding 2 mL of chloroform:methanol solution (2:1, v/v) again to the supernatant, the same procedure was repeated to completely separate the lipid components of the liver. After adding 3 mL of chloroform:methanol:0.05% CaCl2 (3:48:47, v/v/v) solution to the remaining pellets and mixing well for 1 minute, followed by centrifugation at 1000×g for 10 minutes, the resulting pellets were completely dried with nitrogen gas. The dried lipids were dissolved in 1 mL of methanol and then analyzed.\nThe same kit (Bio Clinical System) as that used for the plasma analysis was used to measure the triglyceride and cholesterol levels of the liver tissue."}, "[5]": {"test_system": "aP2 gene expression", "test": "RT-PCR analysis of visceral fat tissues", "assay_type": "in vivo, C57BL/6J mice", "conditions": "mRNA, versus HFD", "protocol": "(§3) After adding 1 mL of Trizol agent per 0.1 g of visceral fat tissues, the mixture was homogenized and centrifuged at 12,000×g for 10 min at 4° C. The supernatant was transferred to a new tube and 200 μl of chloroform was added to the tube, followed by vortexing. The same procedure was repeated twice and then the supernatant was transferred to a new tube, followed by addition of isopropanol and the supernatant at 1:1 ratio. The mixture was vigorously shaken 10 times and then incubated for 10 min at room temperature, followed by centrifugation at 12,000×g for 10 min at 4° C. to remove the supernatant. After adding 1 mL of 70% ethanol to the remaining pellet, it was centrifuged at 7,500×g for 5 min at 4° C. After removing the ethanol, the RNA pellet contained in the tube was dried for 5 min at 4° C. and dissolved in nuclease-free water. The RNA sample concentration was measured at a wavelength of 260 nm and 280 nm using a UV/VIS spectrophotometer (Beckman coulter, DU730) and the integrity of RNA sample was verified by agarose gel electrophoresis.\n(§4) The RNA sample obtained from the visceral fat tissues was transcribed using oligo dT primer and SuperScript reverse transcriptase (GIBCO BRL, Gaithersburg, Md., USA) to synthesize cDNA. The PCR amplification was performed using the cDNA as templates and primers complementary to cDNA 5′ and 3′ flanking sequence. The amplified products were resolved on agarose gel electrophoresis."}, "[6]": {"test_system": "IL-6 gene expression", "test": "RT-PCR analysis of visceral fat tissues", "assay_type": "in vivo, C57BL/6J mice", "conditions": "mRNA", "protocol": "as §3, §4"}, "[7]": {"test_system": "TNF-α gene expression", "test": "RT-PCR analysis of visceral fat tissues", "assay_type": "in vivo, C57BL/6J mice", "conditions": "mRNA", "protocol": "as §3, §4"}, "[8]": {"test_system": "C/EBPα gene expression", "test": "RT-PCR analysis of visceral fat tissues", "assay_type": "in vivo, C57BL/6J mice", "conditions": "mRNA, versus HFD", "protocol": "as §3, §4"}, "[9]": {"test_system": "PPARγ2 gene expression", "test": "RT-PCR analysis of visceral fat tissues", "assay_type": "in vivo, C57BL/6J mice", "conditions": "mRNA, versus HFD", "protocol": "as §3, §4"}, "[10]": {"conditions": "patients treated for 8 weeks; cited from earlier work"}}, "note": "Marks after values point to notes of the source that are not given here."}
{"smiles": "O=C(O)CCCCC(=O)O", "note": "[adipic acid]", "values": [{"measurement": "effect on ketosis", "setting": "[1]", "result": "effective for improving ketosis"}, {"measurement": "daily food intake", "setting": "[2]", "result": "no significant change"}, {"measurement": "decrease of body weight gain as compared to HFD", "setting": "[2]", "result": 49, "unit": "%"}, {"measurement": "epididymal fat-pad weight as compared to HFD", "setting": "[2]", "result": "significantly reduced"}, {"measurement": "mesenteric fat-pad weight as compared to HFD", "setting": "[2]", "result": "significantly reduced"}, {"measurement": "perirenal fat-pad weight as compared to HFD", "setting": "[2]", "result": "significantly reduced"}, {"measurement": "reduction of total visceral fat weight as compared to HFD", "setting": "[2]", "result": 21, "unit": "%"}, {"measurement": "retroperitoneal fat-pad weight as compared to HFD", "setting": "[2]", "result": "significantly reduced"}, {"measurement": "decrease of plasma ALT activity as compared to HFD", "setting": "[3]", "result": 40, "unit": "%"}, {"measurement": "decrease of plasma AST activity as compared to HFD", "setting": "[3]", "result": 27, "unit": "%"}, {"measurement": "lower plasma free fatty acid level as compared to HFD", "setting": "[3]", "result": 32, "unit": "%"}, {"measurement": "lower plasma total cholesterol level as compared to HFD", "setting": "[3]", "result": 24, "unit": "%"}, {"measurement": "lower plasma triglyceride level as compared to HFD", "setting": "[3]", "result": 26, "unit": "%"}, {"measurement": "reduction of fasting blood sugar level as compared to HFD", "setting": "[3]", "result": 25, "unit": "%"}, {"measurement": "ALT", "setting": "[3]; plasma, mean ± SEM", "result": "7.9 ± 0.78^c IU/L"}, {"measurement": "AST", "setting": "[3]; plasma, mean ± SEM", "result": "8.9 ± 0.28^b IU/L"}, {"measurement": "Free fatty acid", "setting": "[3]; plasma, mean ± SEM", "result": "890 ± 56^c uEq/L"}, {"measurement": "Total cholesterol", "setting": "[3]; plasma, mean ± SEM", "result": "2.66 ± 0.41^b mmol/L"}, {"measurement": "Triglyceride", "setting": "[3]; plasma, mean ± SEM", "result": "0.89 ± 0.05^b mmol/L"}, {"measurement": "Glucose", "setting": "[3]; plasma, fasted, mean ± SEM", "result": "6.6 ± 0.41^b mmol/L"}, {"measurement": "decrease of cholesterol level in liver tissue as compared to HFD", "setting": "[4]", "result": 44, "unit": "%"}, {"measurement": "decrease of free fatty acid level in liver tissue as compared to HFD", "setting": "[4]", "result": 37, "unit": "%"}, {"measurement": "decrease of triglyceride level in liver tissue as compared to HFD", "setting": "[4]", "result": 26, "unit": "%"}, {"measurement": "reduction of liver absolute weight as compared to HFD", "setting": "[4]", "result": 12, "unit": "%"}, {"measurement": "expression of aP2 gene", "setting": "[5]", "result": "significantly decreased"}, {"measurement": "HFD-induced elevation in the expression of IL-6", "setting": "[6]", "result": "significantly reversed"}, {"measurement": "HFD-induced elevation in the expression of TNF-α", "setting": "[7]", "result": "significantly reversed"}, {"measurement": "expression of C/EBPα gene", "setting": "[8]", "result": "significantly decreased"}, {"measurement": "expression of PPARγ2 gene", "setting": "[9]", "result": "significantly decreased"}]}
{"smiles": "CCOC(=O)C1=C(COCCN)NC(C)=C(C(=O)OC)C1c1ccccc1Cl.O=C(O)CCCCC(=O)O", "note": "(stereo not drawn) [amlodipine adipate]", "values": [{"measurement": "symptoms of hypertension", "setting": "[10]", "result": "alleviated symptoms of hypertension"}]}
